One compound from the NIST ThermoML archive (doi:10.1016/j.jct.2019.06.007) can be followed below.

For this series the following is noted: Crystal; DTA.

Numbers after ± are expanded uncertainties.

Consider `Cn1c(=O)c2c(ncn2CC(O)CO)n(C)c1=O` (stereo unspecified), for which the Normal melting temperature was determined as 159.90 ± 1.1 °C.
